Source: the OligoGym collection
Values joined by “and” are separate entries in the source; they are usually repeats but may differ in a detail not shown here. Equal entries are not always repeated. After the bases stand the sugars from the 5' end (letter, count) and the backbone: PS all phosphorothioate, else s phosphorothioate and o phosphodiester by linkage. Methylation of C is not given here. e = 2'-O-(2-methoxyethyl) (MOE); k = constrained ethyl (cEt); d = 2'-deoxy (DNA)

Tests used:
[1] = molecular target: MALAT1; settings: ASO, A431, 0.005 µM
[2] = molecular target: IRF4; settings: ASO

Sequence | target mRNA inhibition [1] | also measured
CTGACTTTGTATGTAA (sugars k3 d10 k3, PS) | 51% | 
CAAACGAAACATTGGC (sugars k3 d10 k3, PS) | 31% | 
TATCCTGATATTGGAT (sugars k3 d10 k3, PS) | 24% | 
TTACACCTCAGTACGA (sugars k3 d10 k3, PS) | 15% | 
ATTTTAAGGTTGCATC (sugars k3 d10 k3, PS) | 37% | 
CCTTCGGTGCCTTTAG (sugars k3 d10 k3, PS) | 12% | 
ATTCAATACTATTGTC (sugars k3 d10 k3, PS) | 24% | 
GCAGATTCTGTGTTAT (sugars k3 d10 k3, PS) | -2% | 
ATTCAACTGGAAGCTC (sugars k3 d10 k3, PS) | 17% | 
ACTTTAAGCCTTCGGT (sugars k3 d10 k3, PS) | 13% | 
TTATGGAACTTGAATG (sugars k3 d10 k3, PS) | 7% | 
CGCACTGGCTCCTGGA (sugars k3 d10 k3, PS) | 49% | 
GCTGTCTTCCTAGATT (sugars k3 d10 k3, PS) | 36% | 
CCAGGATTAATGTAGT (sugars k3 d10 k3, PS) | 71% and 55% | 
AAATAAGCACTTATCC (sugars k3 d10 k3, PS) | 18% | 
CATAGTTCAACCCACC (sugars k3 d10 k3, PS) | 35% | 
CTAACATAGTTCAACC (sugars k3 d10 k3, PS) | 16% | 
TGCCTACCACTCTAAG (sugars k3 d10 k3, PS) | -10% | 
GTAGACCAACTAAGCG (sugars k3 d10 k3, PS) | 26% | 
ACTAGTGGTTCCCAAT (sugars k3 d10 k3, PS) | 33% | 
AGGTCATCTATTCACA (sugars k3 d10 k3, PS) | 39% | 
AGGCAAGTCCTCATTA (sugars k3 d10 k3, PS) | 16% | 
AATATTTGCCCCTCCC (sugars k3 d10 k3, PS) | 15% | 
AAGAGCCAAGCACTCA (sugars k3 d10 k3, PS) | 12% | 
GCCCAGTAGGCCAGAC (sugars k3 d10 k3, PS) | 25% | 
AACATTGGCACACAGC (sugars k3 d10 k3, PS) | 54% | 
TCCAGTCCCTGAAGGT (sugars k3 d10 k3, PS) | 12% | 

Sequence | target mRNA inhibition [1] | also measured
AAGATATTGTGCTGTT (sugars k3 d10 k3, PS) | 13% | 
CAGGCGAGCTGAGGCT (sugars k3 d10 k3, PS) | 7% | 
ACATTTGGCCTACTCA (sugars k3 d10 k3, PS) | 46% | 
GTTACTTGCCAACTTG (sugars k3 d10 k3, PS) | 63% and 81% | 
CGCTTTCCCTGTGGCC (sugars k3 d10 k3, PS) | -2% | 
TTACGAAAGTCCTTCA (sugars k3 d10 k3, PS) | 28% | 
TAATGTAGTGTAACAT (sugars k3 d10 k3, PS) | 29% | 
GCAATATCTTAGTAAC (sugars k3 d10 k3, PS) | 23% | 
TCAGTACGAAACTCCC (sugars k3 d10 k3, PS) | 41% | 
GACCTGCCTTCAGGCG (sugars k3 d10 k3, PS) | 13% | 
AAGAGATACCTGTCTG (sugars k3 d10 k3, PS) | 22% | 
AAAGCGAGTTCAAGTG (sugars k3 d10 k3, PS) | -12% | 
GGGTACTTCAAGCATT (sugars k3 d10 k3, PS) | 43% | 
ACTGATCACTTTAGAG (sugars k3 d10 k3, PS) | 36% | 
TGCCAATATTTGCCCC (sugars k3 d10 k3, PS) | 20% | 
CCGTTGGCTGCCAGTG (sugars k3 d10 k3, PS) | 6% | 
CTAAACAATTACCTAA (sugars k3 d10 k3, PS) | 3% | 
GTCAATTAATGCTAGT (sugars k3 d10 k3, PS) | 41% | 
TTGGCCTACTCAAGCT (sugars k3 d10 k3, PS) | -8% | 
ATTAAAGTGTGATAGT (sugars k3 d10 k3, PS) | 17% | 
TGAGTGTTCCTGCATG (sugars k3 d10 k3, PS) | 36% | 
TTGACAAGCAATTAAC (sugars k3 d10 k3, PS) | 7% | 
TTAGAGGGCCTCTATT (sugars k3 d10 k3, PS) | 3% | 
GTACTATAGCATCTGT (sugars k3 d10 k3, PS) | 45% | 
GACAGACCTAAGGGAA (sugars k3 d10 k3, PS) | 34% | 
ACTGTTACCGATGCTT (sugars kkdddddddddkekek, PS) |  | target mRNA inhibition ([2]; MM.1R, 1 µM): 30% and 18%
AATGCACCTGGGAGAC (sugars k3 d10 k3, PS) |  | target mRNA inhibition ([2]; SK-MEL-28, 4 µM): 62%

Sequence | target mRNA inhibition [1] | also measured
AATGAACCCTAAGTTT (sugars k3 d10 k3, PS) |  | target mRNA inhibition ([2]; SK-MEL-28, 4 µM): 3%
ATGATAAGGCACTACT (sugars k3 d10 k3, PS) |  | target mRNA inhibition ([2]; SK-MEL-28, 4 µM): 13%
TAATTACTGCTTGAGG (sugars k3 d10 k3, PS) |  | target mRNA inhibition ([2]; MM.1R, 0.074 µM): 9%; target mRNA inhibition ([2]; MM.1R, 0.222 µM): 31%; target mRNA inhibition ([2]; MM.1R, 0.666 µM): 54%; target mRNA inhibition ([2]; MM.1R, 1 µM): 62%; target mRNA inhibition ([2]; MM.1R, 2 µM): 77%
GGTTTCAGTTGTAAAT (sugars k3 d10 k3, PS) |  | target mRNA inhibition ([2]; SK-MEL-28, 4 µM): 58%
TAGTATGAGAAACGGC (sugars kkkddddddddkekek, PS) |  | target mRNA inhibition ([2]; MM.1R, 1 µM): 30%
CAGCATGACAGGGCGA (sugars k3 d10 k3, PS) |  | target mRNA inhibition ([2]; SK-MEL-28, 4 µM): 56%
GCTCATTTCACTGTAG (sugars k3 d10 k3, PS) |  | target mRNA inhibition ([2]; SK-MEL-28, 4 µM): 64%
ACACAAGTCTTAGGTG (sugars k3 d10 k3, PS) |  | target mRNA inhibition ([2]; MM.1R, 1 µM): -153%
CTGTTACCGATGCTTC (sugars kdddddddddkekeke, PS) |  | target mRNA inhibition ([2]; MM.1R, 1 µM): 2% and 24%
TTATCATCCGAAAAGA (sugars k3 d10 k3, PS) |  | target mRNA inhibition ([2]; MM.1R, 1 µM): 4%
GACACTTTTAGAGAGG (sugars k3 d10 k3, PS) |  | target mRNA inhibition ([2]; SK-MEL-28, 4 µM): 87% and 78%
CCGGAGTCAGTGCTGG (sugars k3 d10 k3, PS) |  | target mRNA inhibition ([2]; SK-MEL-28, 4 µM): -7%
CTGCTTGAGGTTTTCC (sugars k2 d9 e3 k2, PS) |  | target mRNA inhibition ([2]; MM.1R, 1 µM): 31%
CACCATGGCACAGTCT (sugars k3 d10 k3, PS) |  | target mRNA inhibition ([2]; SK-MEL-28, 4 µM): 79%
GTACGAGCACATGTCA (sugars k3 d10 k3, PS) |  | target mRNA inhibition ([2]; MM.1R, 1 µM): 0%
TTGCATCCATGTCAAC (sugars k3 d10 k3, PS) |  | target mRNA inhibition ([2]; SK-MEL-28, 4 µM): 47%
GAGCACATGTCAACAG (sugars k3 d10 k3, PS) |  | target mRNA inhibition ([2]; SK-MEL-28, 4 µM): 40%
AATTTTAAGGCCCTGT (sugars k3 d10 k3, PS) |  | target mRNA inhibition ([2]; SK-MEL-28, 4 µM): 24%
ACCCACATCACTGTCT (sugars k3 d10 k3, PS) |  | target mRNA inhibition ([2]; SK-MEL-28, 4 µM): 15%
CAGACATACCTACAAG (sugars k3 d10 k3, PS) |  | target mRNA inhibition ([2]; SK-MEL-28, 4 µM): 44%
AAATAAGATCCCACGA (sugars k3 d10 k3, PS) |  | target mRNA inhibition ([2]; MM.1R, 1 µM): -7%
CTGACTTTAATATTAG (sugars k3 d10 k3, PS) |  | target mRNA inhibition ([2]; SK-MEL-28, 4 µM): 56%
CTCTTGTGAGGCAAAG (sugars k3 d10 k3, PS) |  | target mRNA inhibition ([2]; SK-MEL-28, 4 µM): 48%
GGCACATGAGAAATCA (sugars k3 d10 k3, PS) |  | target mRNA inhibition ([2]; SK-MEL-28, 4 µM): 33%
CATAATCCAGTATCTG (sugars k3 d10 k3, PS) |  | target mRNA inhibition ([2]; SK-MEL-28, 4 µM): 18%
AAGGAACAAGTGTATC (sugars k3 d10 k3, PS) |  | target mRNA inhibition ([2]; MM.1R, 1 µM): 13%
